# Assay results published in PMC12977544, “Phenotypic high-throughput screening identifies modulators of gut microbial choline metabolism” (mBio, 2026).
# Read-outs that look alike come from different tables or passages of the source.
# Experiments:
# E. coli MS 200-1 [1] = experiment: MIC in MEGA medium; assay type: cell-based, Escherichia coli MS 200-1; details: anaerobic, 37°C, 24 h, up to 200 µM
# Experimental: (§1) For TMA inhibition assays, E. coli and P. mirabilis were grown in NCE medium supplemented with 20 mM choline chloride, A. hydrogenalis was grown in MEGA medium supplemented with 3 mM choline chloride, and C. sporogenes was grown in BHI medium supplemented with 20 mM of choline chloride to induce expression of the cut gene cluster. For MIC assays, all bacteria strains were grown in MEGA medium.
# [2] = test system: Anaerococcus hydrogenalis DSM 7454; experiment: MIC in MEGA medium; assay type: cell-based; details: anaerobic, 37°C, 24 h, up to 200 µM
# Experimental: as §1
# [3] = test system: Bacteroides caccae ATCC 43185; experiment: MIC in MEGA medium; assay type: cell-based; details: anaerobic, 37°C, 24 h, up to 200 µM, read-out: MIC in MEGA medium, B. caccae
# Experimental: as §1
# [4] = test system: Bacteroides ovatus ATCC 8483; experiment: MIC in MEGA medium; assay type: cell-based; details: anaerobic, 37°C, 24 h, up to 200 µM, read-out: MIC in MEGA medium, B. ovatus
# Experimental: as §1
# [5] = test system: Bacteroides thetaiotaomicron VPI-5482; experiment: MIC in MEGA medium; assay type: cell-based; details: anaerobic, 37°C, 24 h, up to 200 µM, read-out: MIC in MEGA medium, B. thetaiotaomicron
# Experimental: as §1
# [6] = test system: Clostridium sporogenes ATCC 15579; experiment: MIC in MEGA medium; assay type: cell-based; details: anaerobic, 37°C, 24 h, up to 200 µM
# Experimental: as §1
# [7] = test system: Collinsella aerofaciens ATCC 25986; experiment: MIC in MEGA medium; assay type: cell-based; details: anaerobic, 37°C, 24 h, up to 200 µM
# Experimental: as §1
# [8] = test system: Proteus mirabilis ATCC 29906; experiment: MIC in MEGA medium; assay type: cell-based; details: anaerobic, 37°C, 24 h, up to 200 µM, read-out: MIC in MEGA medium, P. mirabilis
# Experimental: as §1
# [9] = target: T1, purified CutC (choline trimethylamine-lyase) (Oleidesulfovibrio alaskensis, UniProt Q30W70); experiment: In vitro CutC activity assay coupled to YADH/NADH (absorbance 340 nm); assay type: biochemical, Desulfovibrio desulfuricans G20; details: 5 nM CutC, 200 µM choline, 20°C, anaerobic
# T1 construct: made in house
# Experimental: To investigate if our compounds were inhibiting CutC directly, we tested their activity toward the purified enzyme. The activity of CutC was determined using a coupled enzyme assay, where the acetaldehyde product from the cleavage of choline to TMA is reduced to ethanol by yeast alcohol dehydrogenase (YADH) using nicotinamide adenine dinucleotide (NADH) as a cofactor. The consumption of NADH results in a change in absorption at 340 nm, and this rate of change of absorption was used to calculate the initial rates of reaction of CutC in the presence of varying concentrations of inhibitors ([14], [65]).
# CutC and CutD enzymes from Desulfovibrio desulfuricans G20 were purified, CutC was activated by incubation with CutD, and the amount of glycyl radical installation was quantified as previously described ([15]). The IC50 of compounds was determined in an in vitro CutC activity assay, where CutC activity is coupled to the NADH-dependent enzymatic reduction of acetaldehyde by YADH ([15]). Briefly, assays were conducted in an anaerobic chamber (MBraun) under N2 atmosphere at 20°C. In 50 mM potassium phosphate buffer (pH 8.0, 50 mM KCl), 40 µM of CutD and 150 µM of sodium dithionite were incubated for 20 min before the addition of 200 µM of SAM and 20 µM of CutC monomer. The mixture was incubated for 1 h to activate the glycyl radical enzyme, after which the activated CutC mixture was diluted […] in 50 mM potassium phosphate buffer (pH 8.0, 50 mM KCl). A master mix containing 200 µM NADH, 0.4 µM YADH (Sigma), and the diluted CutC mixture (5 nM final concentration in assay) was prepared and aliquoted into 96-well plates (180 µL per well). Ten microliters of inhibitor or DMSO vehicle was added, followed by 10 µL of aqueous choline chloride solution (final concentration 200 µM). Absorbance was measured at 340 nm immediately after addition of all assay components, with measurements taken every 20 s for 10 min. Initial rates were calculated from absorbance measurements and fitted to Michaelis–Menten equation using nonlinear regression in GraphPad Prism 10 (v. 10.4.0). Background activity was subtracted using no substrate controls, and initial rates for each inhibitor concentration were normalized to no inhibitor controls. IC50 values were obtained by plotting normalized activity values against the logarithm of inhibitor concentration and fitting to a nonlinear regression model in GraphPad Prism 10 (v. 10.4.0).
# E. coli MS 200-1 [10] = experiment: TMA inhibition in bacterial whole cells (LC–MS/MS of d9-TMA from d9-choline); assay type: cell-based, Escherichia coli MS 200-1; details: 1 mM d9-choline in PBS, 75 min, 37°C, anaerobic
# Experimental: as §1
# (§2) Compounds were stored as 10 mM DMSO stocks at –20°C and diluted in DMSO to prepare varying concentrations of inhibitors for testing. Bacteria were grown anaerobically overnight in media supplemented with choline as described above. Cells were pelleted and resuspended in PBS, and d9-choline chloride was added to a final concentration of 1 mM. The final OD600 of the PBS cell resuspensions is as follows: 0.4 (E. coli), 0.15–0.2 (P. mirabilis), 0.2 (C. sporogenes), and 0.4 (A. hydrogenalis). The resuspended cells were added to 96-well plates containing inhibitors (final concentration of 1% DMSO, with final inhibitor concentrations ranging between 0 and 325 µM). The plates were sealed and incubated for 75 min (or 90 min for P. mirabilis) at 37°C. Following incubation, the plates were removed from the anaerobic chamber and analyzed immediately or kept at –20°C until LC–MS/MS analysis. Each inhibitor concentration was tested in triplicate. EC50 values were calculated with GraphPad Prism by fitting the log(inhibitor) vs response—Variable slope (four-parameter) model for non-linear regression.
# (§3) Samples were kept frozen until analysis and kept cold on ice during handling due to the volatility of TMA. Bacterial cell resuspensions in PBS were diluted 100-fold in LCMS-grade acetonitrile with 0.1% formic acid to lyse cells, precipitate proteins, and extract metabolites. Samples were centrifuged at 4,000 rpm for 10 min at 4°C to pellet proteins. The supernatants were then further diluted 20-fold in LCMS-grade acetonitrile with 0.1% formic acid, and the resulting solution was analyzed by LC–MS/MS.
# (§4) LC–MS/MS analysis was performed on an Agilent 1290/6470 Triple Quadrupole LC–MS instrument (Agilent Technologies) using electrospray ionization. The mass spectrometer was operated in multiple reaction monitoring (MRM) mode with positive ionization monitoring. The precursor–product ion pairs used in MRM mode were as follows: m/z 69.1m/z → 49.1 (d9-TMA) and m/z 113.2 m/z → 69.1 (d9-choline). The capillary voltage was set to 4.0 kV, and the fragmentor voltage was set to 30 V (d9-TMA) and 115 V (d9-choline). The collision energy for the precursor–product ion pairs was set to 29 V (d9-TMA) and 21 V (d9-choline). MS^1 resolution was set to wide and MS^2 resolution to unit. The drying gas temperature was maintained at 250°C, with a flow rate of 11 L/min and a nebulizer pressure of 45 psi. The time filter width used was 0.07 min. The injection volume of all samples was 1 μL. Samples were injected onto InfinityLab Poroshell 120 (Agilent) HILIC columns (2.7 μm, 100 mm × 2.1 mm, 100 Å) preceded by InfinityLab Poroshell 120 HILIC guard columns (2.1 mm, 1.9µm UHPLC guard). The LC conditions on the binary pump were as follows: a gradient of 5–35% A increasing over 1.95 min (1.2 mL/min), a gradient of 35–5% A decreasing over 0.05 min (1.6 mL/min), and held at 5% A for 0.5 min (2 mL/min). […] Solvent A was 10 mM ammonium formate with 0.1% formic acid, and solvent B was acetonitrile with 0.1% formic acid. Data analysis was performed with Mass Hunter Workstation Data Acquisition and Qualitative Analysis software (Agilent Technologies).
# [11] = test system: Anaerococcus hydrogenalis DSM 7454; experiment: as above; assay type: cell-based; details: 1 mM d9-choline in PBS, 75 min, 37°C, anaerobic
# Experimental: as §1, §2, §3, §4
# [12] = test system: Clostridium sporogenes ATCC 15579; experiment: as above; assay type: cell-based; details: 1 mM d9-choline in PBS, 75 min, 37°C, anaerobic
# Experimental: as §1, §2, §3, §4
# [13] = test system: Proteus mirabilis ATCC 29906; experiment: as above; assay type: cell-based; details: 1 mM d9-choline in PBS, 90 min, 37°C, anaerobic; for EC50: read-out: EC50 in whole cells, P. mirabilis (TMA inhibition)
# Experimental: as §1, §2, §3, §4
# [14] = test system: Eubacterium rectale ATCC 33656; experiment: MIC in MEGA medium; assay type: cell-based; details: anaerobic, 37°C, 24 h, up to 200 µM; read-out: MIC in MEGA medium, E. rectale
# Experimental: as §1
# [15] = test system: choline-metabolizing gut bacteria (E. coli, P. mirabilis, C. sporogenes, A. hydrogenalis); experiment: TMA inhibition across the panel of four choline-metabolizing gut bacteria; assay type: cell-based; details: compared with compound 6
# From the text: We then used secondary assays to prioritize scaffolds that had broad-spectrum TMA inhibitory activity against additional choline-metabolizing gut bacteria. For this, we used Clostridium sporogenes ATCC 15579, a human gut isolate that is able to efficiently ferment choline in addition to other carbon sources, as well as Anaerococcus hydrogenalis DSM 7454 and Proteus mirabilis ATCC 29906, human gut isolates previously identified to metabolize choline in vitro ([61]). In particular, E. coli MS 200-1 and C. sporogenes ATCC 15579 have been used in gnotobiotic studies to investigate the effects of bacterial choline metabolism on the host and microbiome ([46], [61], [62]). These strains are representative of taxa frequently detected in humans ([63]) and, together with E. coli, are representative of the major phyla and genera in which TMA producers have been detected across human gut isolates ([48]). Importantly, this group of strains included both gram-positive and gram-negative bacteria. Gram-negative bacteria have an additional outer membrane layer and associated efflux pumps ([29]), which typically decreases small molecule permeability compared to gram-positive bacteria. It also included bacteria with cut gene cluster architectures that differ in the number and types of microcompartment proteins encoded and in the size of the CutC enzyme ([48]). We hypothesized that testing the inhibitors against multiple choline-utilizing gut bacteria would increase the likelihood of identifying compounds with broad-spectrum activity.
# as §2
# T1 sequence (Q30W70 53-846): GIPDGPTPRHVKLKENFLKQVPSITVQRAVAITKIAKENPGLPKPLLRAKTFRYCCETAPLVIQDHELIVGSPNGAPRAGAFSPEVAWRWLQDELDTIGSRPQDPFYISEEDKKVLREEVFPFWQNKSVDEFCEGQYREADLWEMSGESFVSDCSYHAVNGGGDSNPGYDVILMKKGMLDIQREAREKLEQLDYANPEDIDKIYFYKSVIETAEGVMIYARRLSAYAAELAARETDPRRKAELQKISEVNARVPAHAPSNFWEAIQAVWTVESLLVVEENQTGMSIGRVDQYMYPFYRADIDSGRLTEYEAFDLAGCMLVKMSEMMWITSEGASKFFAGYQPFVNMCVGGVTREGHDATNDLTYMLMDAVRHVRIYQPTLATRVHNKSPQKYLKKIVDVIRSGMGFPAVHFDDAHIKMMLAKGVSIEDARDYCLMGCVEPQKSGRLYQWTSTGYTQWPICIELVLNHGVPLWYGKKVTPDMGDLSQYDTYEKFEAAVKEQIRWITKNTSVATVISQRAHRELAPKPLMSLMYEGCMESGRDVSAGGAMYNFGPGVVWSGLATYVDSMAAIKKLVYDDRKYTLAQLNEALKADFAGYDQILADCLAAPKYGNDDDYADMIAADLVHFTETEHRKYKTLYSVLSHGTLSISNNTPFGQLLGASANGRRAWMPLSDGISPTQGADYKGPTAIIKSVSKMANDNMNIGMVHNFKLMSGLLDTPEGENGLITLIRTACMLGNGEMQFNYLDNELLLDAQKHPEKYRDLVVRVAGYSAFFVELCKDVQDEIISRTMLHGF
compound,measurement,setting,value
Cc1ccc(-c2cc(C(=O)NCCCCN3CCCCCC3)c(C)[nH]2)cc1C [Compound 44],MIC,"E. coli MS 200-1 [1]; Escherichia coli, MS2001",> 200 µM
same,MIC,"[2]; Anaerococcus hydrogenalis, DSM7454",> 200 µM
same,MIC,"[3]; Bacteroides caccae, ATCC43185",> 200 µM
same,MIC,"[4]; Bacteroides ovatus, ATCC8483",> 200 µM
same,MIC,"[5]; Bacteroides thetaiotaomicron, VPI5482",> 200 µM
same,MIC,"[6]; Clostridium sporogenes, ATCC15579",> 200 µM
same,MIC,"[7]; Collinsella aerofaciens, ATCC25986",> 200 µM
same,MIC,"[8]; Proteus mirabilis, ATCC29906",> 200 µM
Cc1ccc(-c2cc(C(=O)NCCCN3CCOCC3)c(C)[nH]2)cc1C [Compound 37],Purified CutC IC50,[9],No inhibition
Cc1ccc(-c2cc(C(=O)OCCCN3CCC(C)CC3)c(C)[nH]2)cc1C [Compound 28],EC50,E. coli MS 200-1 [10],15 µM
same,EC50,[11],11 µM
same,EC50,[12],18 µM
same,EC50,[13],> 312 µM
same,Purified CutC IC50,[9],No inhibition
Cc1cc(-c2cc(C(=O)NCCCN3CCC(C)CC3)c(C)[nH]2)ccn1 [Compound 26],EC50,E. coli MS 200-1 [10],> 125 µM
same,"EC50 in whole cells, A. hydrogenalis (TMA inhibition)",[11],No inhibition at 312
same,"EC50 in whole cells, C. sporogenes (TMA inhibition)",[12],No inhibition at 312
same,EC50,[13],> 312 µM
same,IC50,[9],45 µM
Cc1[nH]ccc1C(=O)NCCCN1CCC(C)CC1 [Compound 20],EC50,E. coli MS 200-1 [10],> 125 µM
same,"EC50 in whole cells, A. hydrogenalis (TMA inhibition)",[11],No inhibition at 312
same,"EC50 in whole cells, C. sporogenes (TMA inhibition)",[12],No inhibition at 312
same,"EC50 in whole cells, P. mirabilis (TMA inhibition)",[13],No inhibition at 312
same,IC50,[9],> 125 µM
Cc1cccc(-c2cc(C(=O)NCCCN3CCC(C)CC3)c(C)[nH]2)c1 [Compound 23],EC50,E. coli MS 200-1 [10],5 µM
same,EC50,[11],35 µM
same,EC50,[12],95 µM
same,EC50,[13],46 µM
same,IC50,[9],64 µM
same,MIC,E. coli MS 200-1 [1],> 200 µM
same,MIC,[2],> 200 µM
same,MIC,[3],> 200 µM
same,MIC,[4],> 200 µM
same,MIC,[5],> 200 µM
same,MIC,[6],> 200 µM
same,MIC,[7],200 µM
same,MIC,[14],> 200 µM
same,MIC,[8],> 200 µM
Cc1ccc(-c2cc(C(=O)NCCCN3CCC(C)CC3)c[nH]2)cc1C [Compound 7],EC50,E. coli MS 200-1 [10],16 µM
same,EC50,[11],66 µM
same,EC50,[12],215 µM
same,EC50,[13],80 µM
same,Fold reduction of potency across all four choline-metabolizing bacteria,[15],about 2 fold
Cc1ccc(-c2cc(C(=O)N(C)CCCN3CCC(C)CC3)c(C)[nH]2)cc1C [Compound 27],EC50,E. coli MS 200-1 [10],> 125 µM
same,EC50,[11],44 µM
same,EC50,[12],12 µM
same,EC50,[13],> 312 µM
same,IC50,[9],18 µM
